Experimental data: patent publication US20240164373A1, “ANTIMICROBIAL PERFUMING CONSUMER PRODUCTS” (Firmenich SA, priority 2021, published 2024)
In brackets after ≈: the same amount, converted by molar mass.

Experiments:
Type in all cases: cell-based
[1] = tested on: Cutibacterium acnes DSM 1897; assay: MIC test in 96 well plates (broth dilution, turbidity), anaerobic strain; conditions: DSM1897, average of three replicates, WC broth, sample in DMSO, read-out: Minimal inhibitory concentration (ppm) Cutibacterium acnes DSM 1897
[2] = tested on: Escherichia coli ATCC 25922; assay: MIC test in 96 well plates (broth dilution, turbidity); conditions: ATCC25922, average of three replicates, MH broth, sample in ethanol, 37° C. overnight, read-out: Minimal inhibitory concentration (ppm) Escherichia coli ATCC 25922
[3] = tested on: Corynebacterium tuberculostearicum C1; assay: as above; conditions: average of three replicates, BHI-TW80 broth, sample in DMSO, read-out: Minimal inhibitory concentration (ppm) Corynebacterium tuberculostearicum C1
Method: Bacterial suspension of the Corynebacterium tuberculostearicum C1 strain was prepared as follows: Stock culture (stored at −80° C.) was subcultured onto tryptic soy agar plates with 0.5% Tween 80 (TSA-TW80), and subsequently incubated at 37 °C for 48 h. The primary cultures were subcultured again onto TSA-TW80 to prepare the secondary cultures. One single colony of the secondary culture was then selected and used to inoculate 50 ml brain heart infusion broth with 0.5% Tween 80 (BHI-TW80). The inoculated broth was incubated at 37° C. and 180 rpm overnight. Aliquots (2 mL) of the overnight culture were inoculated into 50 ml of fresh BHI-TW80 broth media, and incubated at 37° C., 160 rpm. When the OD600 nm reached the target value of 4.0, cells were harvested by centrifugation at 5000 rpm for 10 min, and then resuspended in the fresh BHI-TW80 broth media at the same volume before the centrifugation. Aliquots (1 ml) of each cell suspension were diluted in 200 ml of fresh BHI-TW80 broth media as the bacterial solutions for the MIC test.
Sample solutions of test materials and reference material were prepared in ethanol for MIC test for E. coli and S. aureus strains or in DMSO for C. tuberculostearicum and C. acnes strains. In brief, stock solutions of 1% and 20% were prepared in each solvent, and then seven serial dilutions of each stock solution were prepared in each solvent to obtain a total of 16 solutions of the test material or the reference material. Aliquot (10 μl) of each solution was used for MIC test. The tested final concentrations of each material were 29, 44, 66, 99, 148, 222, 333, 500, 590, 900, 1300, 2000, 3000, 4500, 6700, 10000 ppm.
MIC test were performed in 96 well plates. […] Column 1 contained bacterial solution only (the positive growth control), and column 12 contained growth media only (the negative growth control). […]
Minimal inhibitory concentration (MIC) was determined as the lowest concentration where no growth was observed. Average MIC value of the three replicates was calculated against each strain.

[4] = tested on: Staphylococcus aureus ATCC 6538; assay: as above; conditions: ATCC6538, average of three replicates, MH broth, sample in ethanol, 37° C. overnight, read-out: Minimal inhibitory concentration (ppm) Staphylococcus aureus ATCC 6538
Escherichia coli DSM 787 = assay: as above; conditions: DSM787, average of three replicates, MH broth, sample in ethanol, 37° C. overnight, read-out: Minimal inhibitory concentration (ppm) Escherichia coli DSM 787

| Structure (SMILES) | MIC [1] [µg/mL] | MIC [2] [µg/mL] | MIC [3] [µg/mL] | MIC [4] [µg/mL] | MIC (Escherichia coli DSM 787) [µg/mL] |
| --- | --- | --- | --- | --- | --- |
| CCC=C(C)C(O)C(C)CC (stereo not drawn) [3,5-dimethyl-5-octen-4-ol] | 1770 (≈ 11300 µM) | 3500 (≈ 22400 µM) | 2670 (≈ 17100 µM) | 1530 (≈ 9810 µM) |  |
| CC(CCO)CCc1ccccc1 (stereo not drawn) [3-methyl-5-phenyl-1-pentanol] | 259 (≈ 1450 µM) |  | 200 (≈ 1120 µM) | 185 (≈ 1040 µM) | 360 (≈ 2020 µM) |
| CC(O)CC(C)CCc1ccccc1 (stereo not drawn) [4-methyl-6-phenyl-2-hexanol] | 148 (≈ 770 µM) | > 10000 | 1300 (≈ 6760 µM) | 173 (≈ 900 µM) |  |
